Entries after “also recorded” stand apart in the source; their conditions may differ.

Series [1] in a line: Determination of pKa values. As to conditions: for pKa: 50% (v/v) methanol.
Description: Fifty to 100 mg compound were weighed and dissolved in 50 ml 50% (v/v) methanol. A titration curve with 50 mM NaOH as standard solution was recorded with a Greisinger electonics GPHR 1400A pH meter. The equivalence point was determined by the difference quotient method (ΔpH/ΔVNaOH) and the pKa read from the titration curve at 50% neutralisation.
The target of another series is T1, ASKζ (Arabidopsis thaliana, UniProt Q39010).
T1 construct: expressed in transfected cells; host or cells: A. thaliana protoplasts
T1 sequence (Q39010 1-412): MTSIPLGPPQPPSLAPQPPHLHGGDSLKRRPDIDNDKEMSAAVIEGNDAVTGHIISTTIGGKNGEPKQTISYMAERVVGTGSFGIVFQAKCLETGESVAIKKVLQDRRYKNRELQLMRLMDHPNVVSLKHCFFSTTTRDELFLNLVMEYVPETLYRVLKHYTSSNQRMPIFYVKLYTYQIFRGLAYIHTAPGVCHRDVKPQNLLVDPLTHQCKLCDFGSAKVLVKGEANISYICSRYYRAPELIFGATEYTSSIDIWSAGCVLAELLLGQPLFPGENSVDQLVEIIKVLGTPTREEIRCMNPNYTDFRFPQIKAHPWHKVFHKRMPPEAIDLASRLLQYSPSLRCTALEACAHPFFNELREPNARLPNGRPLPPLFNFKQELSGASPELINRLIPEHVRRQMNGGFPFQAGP
Put plainly: In vivo kinase assay, BZR1-CFP phosphorylation band-shift in protoplasts. The class given is cell-based, A. thaliana. The settings on record: protoplasts co-transformed with BZR1-CFP and Myc-tagged ASK; increasing concentrations. An excerpt:
A. thaliana protoplasts were co-transformed with expression constructs of BZR1-CFP and Myc-tagged ASKζ and treated with increasing concentrations of compounds 10 and 15. […] and ASKζ-Myc were detected by western blot analysis using polyclonal anti-GFP and monoclonal anti-Myc antibodies, respectively. A Coomassie R250 stain is shown as a loading control. Depending on the ASKζ kinase activity BZR1-CFP can be observed in a phosphorylated or unphosphorylated form (indicated by arrows). The ratio of the two ASKζ-Myc bands, indicating posttranslational modification of this protein, were not affected by inhibitor application.
ASKs were expressed as GST-fusion proteins in E. coli BL21. […] The reaction products were separated by SDS-PAGE and the amount of radioactivity incorporated into MBP quantified using an Amersham storage phosphor imager screen and a Biorad Molecular Imager FX. In vivo kinase activity was detected by phosphorylation band-shift assays using BZR1-CFP as substrate.
Because of this unexpected result, the effect of the inhibitions on the in vivo ASK activity was analysed by a direct method. […] Transformed protoplasts were incubated with different concentrations of compounds 10 and 15 and BZR1-CFP and […] and subsequently analysed by western blotting.

For a further series, the target named is T2, BIN2 (Arabidopsis thaliana, UniProt Q39011).
T2 construct: made in house; host or cells: E. coli BL21
T2 sequence (Q39011 1-380): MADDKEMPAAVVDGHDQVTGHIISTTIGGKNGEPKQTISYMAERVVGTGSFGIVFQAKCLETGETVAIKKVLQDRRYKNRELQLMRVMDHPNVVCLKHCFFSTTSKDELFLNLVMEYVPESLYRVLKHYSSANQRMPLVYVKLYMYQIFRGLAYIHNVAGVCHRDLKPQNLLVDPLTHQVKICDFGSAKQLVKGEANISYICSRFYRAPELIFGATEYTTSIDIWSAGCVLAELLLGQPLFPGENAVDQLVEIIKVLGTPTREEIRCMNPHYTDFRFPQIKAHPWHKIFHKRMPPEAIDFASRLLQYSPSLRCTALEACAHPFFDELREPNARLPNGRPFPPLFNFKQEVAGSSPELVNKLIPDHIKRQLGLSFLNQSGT
The series is described as follows: In vitro kinase assay, GST-BIN2. As to conditions: compounds at 10 μM; result in words. Type of series: biochemical. The protocol: GST-BIN2 was incubated with MBP and γ-[32P]-ATP in the absence or presence of compounds 3, 14 and 15 at a concentration of 10 μM. The proteins were separated by SDS-PAGE and phosphorylation of MBP was quantified with a phospho imager screen. The residual activity is expressed in % of the control. The means and standard deviations were calculated from 4 independent assays.
(§1) ASKs were expressed as GST-fusion proteins in E. coli BL21. In vitro kinase assays were performed by incubating 50 ng GST-fusion protein, 10 μg myelin basic protein (MBP; Sigma, St Louis, Mo.) as substrate and 0.15 MBq γ-[32P]-ATP as co-substrate at 25° C. for 30 min. The reaction buffer consisted of 20 mM HEPES pH7.4, 15 mM MgCl2, 5 mM EGTA and 1 mM DTT. For initial experiments cold ATP was included at concentrations up to 3 μM. The reaction products were separated by SDS-PAGE and the amount of radioactivity incorporated into MBP quantified using an Amersham storage phosphor imager screen and a Biorad Molecular Imager FX. In vivo kinase activity was detected by phosphorylation band-shift assays using BZR1-CFP as substrate.
The second kinase of this class, ASKβ, and the group IV kinase ASKδ are not inhibited. Representatives of all groups were expressed as recombinant GST fusion proteins in E. coli. […]

The test system of series [2] is ASKs (A. thaliana GSK-3/Shaggy-like kinases). The series is described as follows: In vitro kinase assay, GST-ASK fusion proteins with MBP and γ-[32P]-ATP. The class given is biochemical, Arabidopsis thaliana. The settings on record: compounds at 10 μM, result in words. Here is the method:
GST-ASK fusion proteins were incubated with MBP as substrate and γ-[32P]-ATP as co-substrate in the absence (−) or presence of different derivatives (the numbers correspond to Table 1). […] The compounds were used at a concentration of 10 μM. The proteins were separated by SDS-PAGE and the incorporated radioactive phosphate detected with a storage phosphor imager screen.
as §1
Representatives of all groups were expressed as recombinant GST fusion proteins in E. coli.

The test system of the next series is bri1-1 mutant seedlings. As to conditions: background statement; cited from earlier work.
For another series, the system named is cpd mutant seedlings. The settings on record: background statement; cited from earlier work.
In another series the target is T3, ASKθ (Arabidopsis thaliana, UniProt Q96287).
T3 construct: made in house; host or cells: E. coli BL21
T3 sequence (Q96287 1-472): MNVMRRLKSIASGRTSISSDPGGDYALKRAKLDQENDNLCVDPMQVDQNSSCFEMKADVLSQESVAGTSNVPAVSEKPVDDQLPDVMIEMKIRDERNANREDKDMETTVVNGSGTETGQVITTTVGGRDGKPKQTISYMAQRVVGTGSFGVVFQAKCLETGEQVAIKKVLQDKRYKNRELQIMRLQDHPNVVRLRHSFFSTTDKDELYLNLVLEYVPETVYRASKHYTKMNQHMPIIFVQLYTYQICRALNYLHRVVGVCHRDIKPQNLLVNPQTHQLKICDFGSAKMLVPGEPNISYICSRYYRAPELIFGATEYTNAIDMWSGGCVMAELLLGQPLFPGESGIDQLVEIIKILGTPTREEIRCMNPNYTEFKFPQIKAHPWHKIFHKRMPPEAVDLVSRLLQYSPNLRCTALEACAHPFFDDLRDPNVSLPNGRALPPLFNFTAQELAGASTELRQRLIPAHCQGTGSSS
The settings on record: prior knowledge; cited from earlier work.

A further series deals with T4, ASKβ (Arabidopsis thaliana, UniProt O23145).
T4 construct: made in house; host or cells: E. coli BL21
T4 sequence (O23145 1-431): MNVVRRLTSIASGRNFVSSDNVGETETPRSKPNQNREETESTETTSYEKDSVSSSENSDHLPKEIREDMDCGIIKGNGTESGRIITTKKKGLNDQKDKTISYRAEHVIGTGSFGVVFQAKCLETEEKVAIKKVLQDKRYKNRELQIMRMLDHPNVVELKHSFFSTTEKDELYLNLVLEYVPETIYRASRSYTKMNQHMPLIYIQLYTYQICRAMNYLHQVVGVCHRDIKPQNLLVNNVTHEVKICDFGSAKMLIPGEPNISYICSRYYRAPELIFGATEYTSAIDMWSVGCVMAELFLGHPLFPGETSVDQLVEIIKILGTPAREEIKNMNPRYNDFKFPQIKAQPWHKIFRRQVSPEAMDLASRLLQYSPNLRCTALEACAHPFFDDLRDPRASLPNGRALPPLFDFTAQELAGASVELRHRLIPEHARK
As to conditions: prior knowledge; cited from earlier work.

A further series addresses T5, ASKδ (Arabidopsis thaliana, UniProt Q9FVS6).
T5 construct: made in house; host or cells: E. coli BL21
T5 sequence (Q9FVS6 1-420): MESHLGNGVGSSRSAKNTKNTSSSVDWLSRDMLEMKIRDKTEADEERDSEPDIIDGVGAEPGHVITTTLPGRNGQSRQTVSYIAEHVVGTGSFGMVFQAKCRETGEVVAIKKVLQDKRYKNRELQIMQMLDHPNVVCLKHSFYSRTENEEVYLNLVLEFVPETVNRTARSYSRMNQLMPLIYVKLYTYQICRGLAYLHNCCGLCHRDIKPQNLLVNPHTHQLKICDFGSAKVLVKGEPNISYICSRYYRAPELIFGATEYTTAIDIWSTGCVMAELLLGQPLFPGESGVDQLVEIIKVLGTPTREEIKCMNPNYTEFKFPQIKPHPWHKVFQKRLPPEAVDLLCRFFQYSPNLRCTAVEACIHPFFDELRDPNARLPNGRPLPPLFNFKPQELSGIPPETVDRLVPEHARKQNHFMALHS
As to conditions: prior knowledge; listed as 4-[(5-bromo-2-pyridinyl)amino]-4-oxobutanoic acid; cited from earlier work.

Series [3] deals with group I and group II ASKs. As to conditions: group I: ASKα, ASKγ, ASKε; group II: BIN2, ASKζ, ASKι; prior knowledge; listed as 4-[(5-bromo-2-pyridinyl)amino]-4-oxobutanoic acid; cited from earlier work.

For the molecule `O=C(O)CCC(=O)Nc1ccc(I)cn1` [Compound 15, 4-[(5-iodopyrid-2-yl)amino]-4-oxobutanoic acid], the pKa (usually the pH at which an ionisable group is half protonated) in series [1] is 5.8. For the same molecule, in series [1] (intracellular pH of 7.4), the Portion undissociated entry is listed as “less than 3%”. Moreover, in series [1] (pH5.8, the pH of the medium), the “Portion undissociated / lipophilic, capable of diffusion through the membrane” value is given as 50%. Further, the “Inhibition of in vivo ASK activity (BZR1-CFP phosphorylation shift)” value on ASKζ is “potent inhibitors in vivo; also recorded: highly active; also recorded: high inhibitory activity in vivo”. On BIN2, the “Inhibition of BIN2 in vitro (residual kinase activity)” value was “highest potency”. Also, the entries for the “Inhibition of ASKs in vitro (MBP phosphorylation)” value in series [2] and in series [2] (listed as iodo derivative) were “highest activity; also recorded: most potent compound in vitro” and “highly active”, respectively.
In the case of `CC(C)[C@@H](C)[C@@H](O)[C@H](O)[C@@H](C)[C@H]1CC[C@H]2[C@@H]3COC(=O)[C@H]4C[C@H](O)[C@H](O)C[C@]4(C)[C@H]3CC[C@]12C` [epi-brassinolide], the “Rescue of bri1-1 mutant” value with bri1-1 mutant seedlings is “not bril-1”. Also, the “Rescue of cpd mutant” value in the series on cpd mutant seedlings was “rescues cpd”.
For the molecule `O=C(O)CCC(=O)Nc1ccc(Br)cn1` [Compound 14, 4-[(5-bromopyrid-2-yl)amino]-4-oxobutanoic acid], in the series on bri1-1 mutant seedlings, the “Rescue of bri1-1 mutant” value is on record as “rescues both mutants”. Also, the “Inhibition of ASKθ (group III)” value on ASKθ is “moderately inhibited”. The “Inhibition of ASKβ (group III)” value at ASKβ is on record as “not inhibited”. In series [1], this molecule had a pKa of 5.6. The “Inhibition of ASKδ (group IV)” value on ASKδ is listed as “not inhibited; also recorded: insensitive”. In addition, the “Inhibition of group I and group II ASKs” value in series [3] was “potent inhibitor; also recorded: most sensitive”. Also, the “Rescue of cpd mutant” value in the series with cpd mutant seedlings was “rescues both mutants”. Also, in series [2], the “Inhibition of ASKs in vitro (MBP phosphorylation)” value was “highly active”.

Source of the values: patent publication US8642510B2, “Inhibitors for brassinosteroid signalling” (GMI-Gregor Mendel-Institut fuer Molekulare Pflanzenbiologie …, priority 2008, dated 2014).
